Data: US20120022142A1, “RNA Interference Mediated Inhibition of Signal Transducer and Activator of Transcription 1 (STAT1) Gene Expression Using Short Interfering Nucleic Acid (siNA)” (Merck Sharp & Dohme Corp., priority 2009, published 2012)
[invAb] = inverted abasic unit; d = 2'-deoxy (DNA); m = 2'-O-methyl; r = 2'-OH (RNA); f = 2'-fluoro

Key:
STAT1 human mRNA = experiment: Initial screen of siNAs: STAT1 mRNA knock-down in A549 cells (96-well transfection, Taqman RT-PCR); type: cell-based; settings: 10 nM siNA, 24 hrs, normalized against GAPDH, average of 2 experiments
Protocol: A549 (human; ATCC cat# CCL-185): Cells were cultured at 37° C. in the presence of 5% CO2 and grown in Ham's F12K medium with 2 mM L-glutamine adjusted to contain 1.5 g/L sodium bicarbonate and supplemented with fetal bovine serum at a final concentration of 10% and 100 μg/mL of streptomycin and 100 U/mL penicillin.
(§1) Cells were plated in all wells of a tissue-culture treated, 96-well plate at a final count of 5000 cells/well in 100 μL of the appropriate culture media. The cells were cultured for 24 hours after plating at 37° C. in the presence of 5% CO2.
(§2) After 24 hours, complexes containing siNA and RNAiMax were created as follows: A solution of RNAiMax diluted 33-fold in OPTI-MEM was prepared. In parallel, solutions of the siNAs for testing were prepared to a final concentration of 120 nM in OPTI-MEM. After incubation of RNAiMax/OPTI-MEM solution at room temperature for 5 min, an equal volume of the siNA solution and the RNAiMax solution were added together for each of the siNAs.
(§3) This solution was incubated at room temperature for 20 minutes. After incubation, 20 uL of the solution was added to each of the relevant wells. The final concentration of siNA in each well was 10 nM and the final volume of RNAiMax in each well was 0.3 ul.
(§4) The time of incubation with the RNAiMax-siNA complexes was 24 hours and there was no change in media between transfection and harvesting, unless otherwise indicated.
(§5) RNA was extracted from a 96-well plate using the TaqMan® Gene Expression Cells-to-CT™ Kit (Cat# 4399002) with a modified protocol. Briefly, a 60 uL (1 plate) or 110 uL (2 plates) of the Lysis Solution with DNase I was dispensed into each well of the Lysis Buffer Plate (twin.tec full skirt plate). The lysis buffer and stop plates were stored at 4° C. until the cells were washed.
(§6) The culture medium was aspirated and discarded from the wells of the culture plate. 50 uL of chilled DPBS was added to each well, then aspirated and discarded. The lysis was performed automatically using a BioMek FX instrument and method. After the Biomek method was completed, the lysis plate was incubated for 2 min at room temperature. The lysis plate can be stored for 2 hours at 4° C., or at −20° C. or −80° C. for two months.
(§7) Each well of the reverse transcription plate required 10 uL of 2× reverse transcriptase Buffer, 1 uL of 20× reverse transcription enzyme and 2 uL of nuclease-free water. The reverse transcription master mix was prepared by mixing 2× reverse transcription buffer, 20× reverse transcription enzyme mix, and nuclease-free water. 13 uL of the reverse transcription master mix was dispensed into each well of the reverse transcription plate (semi-skirted). A separate reverse transcription plate was prepared for each cell plate. The plate was loaded onto a Biomek NX or Biomek FX Dual-96 and the Biomek method was run. The program is programmed to automatically added 7 uL of lysate from the cell lysis procedure described above into each well of the reverse transcription plate. The plate is sealed and spun on a centrifuge (1000 rpm for 30 seconds) to settle the contents to the bottom of the reverse transcription plate. The plate is placed in a thermocycler at 37° C. for 60 min, 95° C. for 5 min, and 4° C. until the plate is removed from the thermocycler. Upon removal, if not used immediately, the plate was frozen at −20° C.
(§8) A series of probes and primers were used to detect the various mRNA transcripts of the genes of β-Actin (human cell line only), and of STAT1 and GAPDH in mouse and human cell lines. All Taqman probes and primers for the experiments here-in described were supplied as pre-validated sets by Applied Biosystems, Inc. (see Table 2).
The assays were performed on an ABI 7900 instrument, according to the manufacturer's instructions.
Within each experiment, the baseline was set in the exponential phase of the amplification curve, and based on the intersection point of the baselines with the amplification curve, a Ct value was assigned by the instrument. […]

STAT1 mouse mRNA = experiment: Initial screen of siNAs: STAT1 mRNA knock-down in NIH 3T3 cells (96-well transfection, Taqman RT-PCR); type: cell-based; settings: 10 nM siNA, 24 hrs, normalized against GAPDH, average of 2 experiments
Protocol: NIH 3T3 (mouse; ATCC cat# CRL-1658): Cells were cultured at 37° C. in the presence of 5% CO2 and grown in Dulbecco's modified Eagle's medium (DMEM) with 4 mM L-glutamine adjusted to contain 1.5 g/L sodium bicarbonate and 4.5 g/L glucose and supplemented with fetal bovine serum at a final concentration of 10%, 100 μg/mL of streptomycin, and 100 U/mL penicillin.
as §1, §2, §3, §4, §5, §6, §7, §8
The assays were performed on an ABI 7900 instrument, according to the manufacturer's instructions. […]

Row | Substance | % KD Human (STAT1 human mRNA) [%] | % KD Mouse (STAT1 mouse mRNA) [%]
1 | 25355-DC: STAT1 siNA duplex, human target site 1126; modified strands SEQ ID NO: 47 and 48 (chain 1 CUGCAGAACUGGUUCACUATT; chain 2 UAGUGAACCAGUUCUGCAGUU; chain 1: DNA at AGT, 2'-fluoro at CU, [invAb] at 5' end, 3' end, backbone not given here; chain 2: sugars from the 5' end rrrfmmmffmmffffmfmmmm, backbone not given here) | 90 | 35
2 | 25349-DC: STAT1 siNA duplex, human target site 185; modified strands SEQ ID NO: 35 and 36 (chain 1 CCUGCGCGCAGAAAAGUUUTT; chain 2 AAACUUUUCUGCGCGCAGGUU; chain 1: DNA at AGT, 2'-fluoro at CU, [invAb] at 5' end, 3' end, backbone not given here; chain 2: sugars from the 5' end rrrfffffffmfmfmfmmmmm, backbone not given here) | 91 | 33
3 | 25354-DC: STAT1 siNA duplex, human target site 678; modified strands SEQ ID NO: 45 and 46 (chain 1 GAAGGAAGAAAGGAAAAUUTT; chain 2 AAUUUUCCUUUCUUCCUUCUU; chain 1: sugars from the 5' end d17 f2 d2, [invAb] at 5' end, 3' end, backbone not given here; chain 2: sugars from the 5' end r3 f16 m2, backbone not given here) | 91 | 80
4 | 25357-DC: STAT1 siNA duplex, human target site 2285; modified strands SEQ ID NO: 51 and 52 (chain 1 CUGACAUCAUUCGCAAUUATT; chain 2 UAAUUGCGAAUGAUGUCAGUU; chain 1: DNA at AGT, 2'-fluoro at CU, [invAb] at 5' end, 3' end, backbone not given here; chain 2: sugars from the 5' end rrrffmfmmmfmmfmffmmmm, backbone not given here) | 93 | 29
5 | 25371-DC: STAT1 siNA duplex, human target site 432; modified strands SEQ ID NO: 79 and 80 (chain 1 CAUGGAAAUCAGACAGUACTT; chain 2 GUACUGUCUGAUUUCCAUGUU; chain 1: DNA at AGT, 2'-fluoro at CU, [invAb] at 5' end, 3' end, backbone not given here; chain 2: sugars from the 5' end rrrffmfffmmfffffmfmmm, backbone not given here) | 89 | 85
6 | 25373-DC: STAT1 siNA duplex, human target site 2160; modified strands SEQ ID NO: 83 and 84 (chain 1 CAGUGAGAGCUCCCGGGAATT; chain 2 UUCCCGGGAGCUCUCACUGUU; chain 1: DNA at AGT, 2'-fluoro at CU, [invAb] at 5' end, 3' end, backbone not given here; chain 2: sugars from the 5' end rrrffmmmmmfffffmffmmm, backbone not given here) | 30 | 24
7 | 25361-DC: STAT1 siNA duplex, human target site 1104; modified strands SEQ ID NO: 59 and 60 (chain 1 GCCCAAUGCUUGCUUGGAUTT; chain 2 AUCCAAGCAAGCAUUGGGCUU; chain 1: DNA at AGT, 2'-fluoro at CU, [invAb] at 5' end, 3' end, backbone not given here; chain 2: sugars from the 5' end rrrfmmmfmmmfmffmmmfmm, backbone not given here) | 92 | 35
8 | 25360-DC: STAT1 siNA duplex, human target site 1793; modified strands SEQ ID NO: 57 and 58 (chain 1 CCAGGAAUCUGUCCUUCUUTT; chain 2 AAGAAGGACAGAUUCCUGGUU; chain 1: DNA at AGT, 2'-fluoro at CU, [invAb] at 5' end, 3' end, backbone not given here; chain 2: sugars from the 5' end rrrmmmmmfmmmfffffmmmm, backbone not given here) | 90 | 73
9 | 25356-DC: STAT1 siNA duplex, human target site 1115; modified strands SEQ ID NO: 49 and 50 (chain 1 GCUUGGAUCAGCUGCAGAATT; chain 2 UUCUGCAGCUGAUCCAAGCUU; chain 1: DNA at AGT, 2'-fluoro at CU, [invAb] at 5' end, 3' end, backbone not given here; chain 2: sugars from the 5' end rrrfmfmmffmmfffmmmfmm, backbone not given here) | 43 | 35
10 | 25347-DC: STAT1 siNA duplex, human target site 2318; modified strands SEQ ID NO: 31 and 32 (chain 1 CUGAGAAUAUUCCUGAGAATT; chain 2 UUCUCAGGAAUAUUCUCAGUU; chain 1: DNA at AGT, 2'-fluoro at CU, [invAb] at 5' end, 3' end, backbone not given here; chain 2: sugars from the 5' end rrrffmmmmmfmfffffmmmm, backbone not given here) | 93 | 57
11 | 25359-DC: STAT1 siNA duplex, human target site 268; modified strands SEQ ID NO: 55 and 56 (chain 1 CGACAGUCUUGGCACCUAATT; chain 2 UUAGGUGCCAAGACUGUCGUU; chain 1: DNA at AGT, 2'-fluoro at CU, [invAb] at 5' end, 3' end, backbone not given here; chain 2: sugars from the 5' end rrrmmfmffmmmmffmffmmm, backbone not given here) | 88 | 47
12 | 25358-DC: STAT1 siNA duplex, human target site 1020; modified strands SEQ ID NO: 53 and 54 (chain 1 CACUGAACUUACCCAGAAUTT; chain 2 AUUCUGGGUAAGUUCAGUGUU; chain 1: DNA at AGT, 2'-fluoro at CU, [invAb] at 5' end, 3' end, backbone not given here; chain 2: sugars from the 5' end rrrffmmmfmmmfffmmfmmm, backbone not given here) | 79 | 17
13 | 25370-DC: STAT1 siNA duplex, human target site 785; modified strands SEQ ID NO: 77 and 78 (chain 1 AAGUCAGAAAUGUGAAGGATT; chain 2 UCCUUCACAUUUCUGACUUUU; chain 1: DNA at AGT, 2'-fluoro at CU, [invAb] at 5' end, 3' end, backbone not given here; chain 2: sugars from the 5' end rrrfffmfmfffffmmfffmm, backbone not given here) | 84 | 76
